This note sets out measurements from PubChem BioAssay AID504758 (National Center for Advancing Translational Sciences (NCATS), 2011).

For this data set, the system named is Caco-2 monolayer permeability, A-to-B, LC-MS/MS. As to the kind of experiment: Inhibitors of Cruzain: Caco-2 Permeability Profiling Assay. The following applies: hits give high values. From the text: Chagas Disease is a neglected tropical disease that affects over 16 million people in Latin America. The cysteine protease cruzain is essential for the survival Trypanosoma cruzi, the parasitic agent responsible for Chagas disease. Potential intervention for T. cruzi includes the inhibition of cruzain. This bioassay will summarize the ongoing development of small molecule cruzain inhbitiors. Currently, a screen of ~200k compounds and through extensive follow-up work a probe was identified. To further characterize the probe, it was tested in in vitro ADME assays. This permeability assay predicts the in vivo absorption of the lead across the intestinal lining by using a Caco-2 cell line and measuring the lead's rate of transport into the cytosol. […] NIH Chemical Genomics Center [NCGC] NIH Molecular Libraries Probe Production Centers Network [MLPCN] MLSCN Grant: DA024891-01 PI Name: Dr. Brian Shoichet; University of California, San Francisco
1. Buffer Preparation: Prepare 1M HEPES: add 23.83g HEPES to 100ml of 0.85% NaCl Prepare HBSS+ buffer: add 12.8ml of 1M HEPES in 0.85% NaCl to 500ml HBSS buffer. 2. Take out the compounds from -80 degrees C, ultrasonicate or pre-warm for a few minutes to thaw the compounds. 3. […] The T0, LY and T90, LY plates are read by FlexStation 3 at excitation of 485 nm and emission of 535 nm to determine LY permeability. […]

Turning to `Cc1ccc(OCCn2c(CCNC(=O)C3CCCCC3)nc3ccccc32)cc1`, the apparent permeability Papp was 4.1 10^-6 cm/s.
